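GI50 marks 50% less growth. TGI: total growth inhibition.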
Experiments:
Assay in all cases: inhibition of tumour cell growth, NCI panel, 384-well format
OVCAR-5 ovarian = test system: OVCAR-5 ovarian
UACC-62 melanoma = test system: UACC-62 melanoma
MCF7 breast = test system: MCF7 breast
SF-539 CNS = test system: SF-539 CNS
NCI-H226 lung = test system: NCI-H226 lung
HOP-92 NSCLC = test system: HOP-92 NSCLC
EKVX NSCLC = test system: EKVX NSCLC
UACC-257 melanoma = test system: UACC-257 melanoma
TK-10 renal = test system: TK-10 renal
HS 578T breast = test system: HS 578T breast
M14 melanoma = test system: M14 melanoma
IGROV1 ovarian = test system: IGROV1 ovarian
HL-60(TB) leukemia = test system: HL-60(TB) leukemia
OVCAR-3 ovarian = test system: OVCAR-3 ovarian
MALME-3M melanoma = test system: MALME-3M melanoma
A549 NSCLC = test system: A549 NSCLC
HCT-116 colon = test system: HCT-116 colon
MDA-MB-435 melanoma = test system: MDA-MB-435 melanoma
NCI-H460 NSCLC = test system: NCI-H460 NSCLC
HCC-2998 colon = test system: HCC-2998 colon
NCI/ADR-RES ovarian = test system: NCI/ADR-RES ovarian
RPMI-8226 leukemia = test system: RPMI-8226 leukemia
SK-OV-3 ovarian = test system: SK-OV-3 ovarian
SR leukemia = test system: SR leukemia
SNB-75 CNS = test system: SNB-75 CNS
SN12C renal = test system: SN12C renal
HT29 colon = test system: HT29 colon
NCI-H322M lung = test system: NCI-H322M lung
BT-549 breast = test system: BT-549 breast
NCI-H522 lung = test system: NCI-H522 lung
DU-145 prostate = test system: DU-145 prostate
T-47D breast = test system: T-47D breast
LOX IMVI melanoma = test system: LOX IMVI melanoma
COLO 205 colon = test system: COLO 205 colon
OVCAR-4 ovarian = test system: OVCAR-4 ovarian
SNB-19 CNS = test system: SNB-19 CNS
HCT-15 colon = test system: HCT-15 colon
SF-268 CNS = test system: SF-268 CNS
SK-MEL-28 melanoma = test system: SK-MEL-28 melanoma
U251 glioblastoma = test system: U251 glioblastoma
NCI-H23 lung = test system: NCI-H23 lung
MDA-MB-468 breast = test system: MDA-MB-468 breast
ACHN renal = test system: ACHN renal
CAKI-1 renal = test system: CAKI-1 renal
SK-MEL-5 melanoma = test system: SK-MEL-5 melanoma
A498 renal = test system: A498 renal
SF-295 CNS = test system: SF-295 CNS
KM12 colon = test system: KM12 colon
OVCAR-8 ovarian = test system: OVCAR-8 ovarian
RXF 393 renal = test system: RXF 393 renal
MOLT-4 leukemia = test system: MOLT-4 leukemia
HOP-62 NSCLC = test system: HOP-62 NSCLC
PC-3 prostate = test system: PC-3 prostate

CCc1cnn2c(NCc3ccc[n+]([O-])c3)cc(N3CCCC[C@H]3CCO)nc12
GI50 (OVCAR-5 ovarian): < 0.01 µM | TGI (OVCAR-5 ovarian): < 0.01 µM | GI50 (UACC-62 melanoma): < 0.01 µM | TGI (UACC-62 melanoma): < 0.01 µM | GI50 (MCF7 breast): < 0.01 µM | TGI (MCF7 breast): > 100 µM | GI50 (SF-539 CNS): < 0.01 µM | TGI (SF-539 CNS): < 0.01 µM | GI50 (NCI-H226 lung): < 0.01 µM | TGI (NCI-H226 lung): < 0.01 µM | GI50 (HOP-92 NSCLC): < 0.01 µM | TGI (HOP-92 NSCLC): > 100 µM | GI50 (EKVX NSCLC): < 0.01 µM | TGI (EKVX NSCLC): < 0.01 µM | GI50 (UACC-257 melanoma): < 0.01 µM | TGI (UACC-257 melanoma): < 0.01 µM | GI50 (TK-10 renal): < 0.01 µM | TGI (TK-10 renal): < 0.01 µM | GI50 (HS 578T breast): < 0.01 µM | TGI (HS 578T breast): < 0.01 µM | GI50 (M14 melanoma): < 0.01 µM | TGI (M14 melanoma): < 0.01 µM | GI50 (IGROV1 ovarian): < 0.01 µM | TGI (IGROV1 ovarian): < 0.01 µM | GI50 (HL-60(TB) leukemia): < 0.01 µM | TGI (HL-60(TB) leukemia): < 0.01 µM | GI50 (OVCAR-3 ovarian): < 0.01 µM | TGI (OVCAR-3 ovarian): < 0.01 µM | GI50 (MALME-3M melanoma): < 0.01 µM | TGI (MALME-3M melanoma): < 0.01 µM | GI50 (A549 NSCLC): < 0.01 µM | TGI (A549 NSCLC): > 100 µM | GI50 (HCT-116 colon): < 0.01 µM | TGI (HCT-116 colon): > 100 µM | GI50 (MDA-MB-435 melanoma): < 0.01 µM | TGI (MDA-MB-435 melanoma): < 0.01 µM | GI50 (NCI-H460 NSCLC): < 0.01 µM | TGI (NCI-H460 NSCLC): < 0.01 µM | GI50 (HCC-2998 colon): < 0.01 µM | TGI (HCC-2998 colon): < 0.01 µM | GI50 (NCI/ADR-RES ovarian): 0.0413 µM | TGI (NCI/ADR-RES ovarian): 0.25 µM | GI50 (RPMI-8226 leukemia): < 0.01 µM | TGI (RPMI-8226 leukemia): < 0.01 µM | GI50 (SK-OV-3 ovarian): < 0.01 µM | TGI (SK-OV-3 ovarian): > 100 µM | GI50 (SR leukemia): < 0.01 µM | TGI (SR leukemia): < 0.01 µM | GI50 (SNB-75 CNS): < 0.01 µM | TGI (SNB-75 CNS): < 0.01 µM | GI50 (SN12C renal): < 0.01 µM | TGI (SN12C renal): < 0.01 µM | GI50 (HT29 colon): < 0.01 µM | TGI (HT29 colon): < 0.01 µM | GI50 (NCI-H322M lung): < 0.01 µM | TGI (NCI-H322M lung): < 0.01 µM | GI50 (BT-549 breast): < 0.01 µM | TGI (BT-549 breast): < 0.01 µM | GI50 (NCI-H522 lung): < 0.01 µM | TGI (NCI-H522 lung): < 0.01 µM | GI50 (DU-145 prostate): < 0.01 µM | TGI (DU-145 prostate): < 0.01 µM | GI50 (T-47D breast): < 0.01 µM | TGI (T-47D breast): > 100 µM | GI50 (LOX IMVI melanoma): < 0.01 µM | TGI (LOX IMVI melanoma): < 0.01 µM | GI50 (COLO 205 colon): < 0.01 µM | TGI (COLO 205 colon): < 0.01 µM | GI50 (OVCAR-4 ovarian): < 0.01 µM | TGI (OVCAR-4 ovarian): < 0.01 µM | GI50 (SNB-19 CNS): < 0.01 µM | TGI (SNB-19 CNS): < 0.01 µM | GI50 (HCT-15 colon): < 0.01 µM | TGI (HCT-15 colon): 0.0218 µM | GI50 (SF-268 CNS): < 0.01 µM | TGI (SF-268 CNS): < 0.01 µM | GI50 (SK-MEL-28 melanoma): < 0.01 µM | TGI (SK-MEL-28 melanoma): < 0.01 µM | GI50 (U251 glioblastoma): < 0.01 µM | TGI (U251 glioblastoma): < 0.01 µM | GI50 (NCI-H23 lung): < 0.01 µM | TGI (NCI-H23 lung): < 0.01 µM | GI50 (MDA-MB-468 breast): < 0.01 µM | TGI (MDA-MB-468 breast): < 0.01 µM | GI50 (ACHN renal): < 0.01 µM | TGI (ACHN renal): < 0.01 µM | GI50 (CAKI-1 renal): < 0.01 µM | TGI (CAKI-1 renal): > 100 µM | GI50 (SK-MEL-5 melanoma): < 0.01 µM | TGI (SK-MEL-5 melanoma): < 0.01 µM | GI50 (A498 renal): < 0.01 µM | TGI (A498 renal): < 0.01 µM | GI50 (SF-295 CNS): < 0.01 µM | TGI (SF-295 CNS): > 100 µM | GI50 (KM12 colon): < 0.01 µM | TGI (KM12 colon): > 100 µM | GI50 (OVCAR-8 ovarian): < 0.01 µM | TGI (OVCAR-8 ovarian): < 0.01 µM | GI50 (RXF 393 renal): < 0.01 µM | TGI (RXF 393 renal): < 0.01 µM | GI50 (MOLT-4 leukemia): < 0.01 µM | TGI (MOLT-4 leukemia): < 0.01 µM | GI50 (HOP-62 NSCLC): < 0.01 µM | TGI (HOP-62 NSCLC): < 0.01 µM | GI50 (PC-3 prostate): < 0.01 µM | TGI (PC-3 prostate): < 0.01 µM
